Experimental data from patent US11279726B2, “Norbornene-based amphipathic compound and utilization thereof” (Industry-University Cooperation Foundation Hanyang …, priority 2017, dated 2022).

Experiments:
[1] = target: T1, uric acid-xanthine/H+ symporter (UapA) (Emericella nidulans, UniProt Q07307, G411V); experiment: UapA extraction and thermal stability by fluorescence size exclusion chromatography (FSEC); design: species or system Aspergillus nidulans; details: 1.0 wt % amphiphile; for Retention of monodispersed UapA-GFP peak after heating (FSEC): 10 minutes at 40° C., compared with DDM
T1 construct: made in house; host or cells: Saccharomyces cerevisiae FGY217
T1 sequence (Q07307 12-574 G411V): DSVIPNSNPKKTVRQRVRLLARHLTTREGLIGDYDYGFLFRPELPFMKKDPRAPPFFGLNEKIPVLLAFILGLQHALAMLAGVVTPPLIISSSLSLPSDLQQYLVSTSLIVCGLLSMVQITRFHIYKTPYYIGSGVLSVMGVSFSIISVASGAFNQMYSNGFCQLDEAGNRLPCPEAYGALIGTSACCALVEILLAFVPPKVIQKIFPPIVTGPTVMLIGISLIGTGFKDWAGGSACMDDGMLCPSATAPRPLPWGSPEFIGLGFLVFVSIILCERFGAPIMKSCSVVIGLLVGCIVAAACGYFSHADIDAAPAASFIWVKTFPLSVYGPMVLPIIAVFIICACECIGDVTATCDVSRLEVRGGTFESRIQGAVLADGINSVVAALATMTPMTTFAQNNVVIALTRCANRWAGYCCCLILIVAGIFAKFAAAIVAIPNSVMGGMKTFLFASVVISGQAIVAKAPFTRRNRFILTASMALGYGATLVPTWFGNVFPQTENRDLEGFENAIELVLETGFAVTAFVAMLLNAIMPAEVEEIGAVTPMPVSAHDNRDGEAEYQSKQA
Procedure: An experiment for measuring the structural stability of uric acid-xanthine/H+ symporter (UapA) isolated from Aspergillus nidulans using NBMs was performed. The structural stability of UapA was evaluated using […].
Specifically, UapAG411VΔ1-11 (hereinafter, referred to as “UapA”) was expressed as GFP fusion in Saccharomyces cerevisiae FGY217 strain and isolated in a sample buffer (20 mM Tris (pH 7.5), 150 mM NaCl, 0.03% DDM, 0.6 mM xanthine) according to the method described in the literature written by J. Leung et al. (Mol. Membr. Biol. 2013, 30, 32-42). Membranes containing UapA were resuspended in PBS, 10 mM imidazole pH 8.0, 150 mM NaCl, 10% glycerol, and the protein concentration was measured. The membranes were adjusted to a concentration of 1 mg·ml^−1 and 1 ml aliquots were individually incubated with DDM or NBMs at a final amphiphilic material concentration of 1.0 wt % for 10 minutes at 40° C. 100 μl aliquots were removed from each tube, and a fluorescence reading was taken for each sample before and after ultracentrifugation at 150,000 g for 10 minutes to remove insoluble material. The remaining soluble fraction for each condition was submitted to fluorescent size exclusion chromatography (FSEC) using a Superose 6 column (GE Healthcare) equilibrated with DDM.

β2AR / β2AR-Gs complex [2] = experiment: Size exclusion chromatography of β2AR and β2AR-Gs complex after amphiphile exchange; design: species or system human; details: 21-day incubation at 4° C.
Procedure: (§1) β2AR purified with 0.1 wt % DDM was loaded onto an M1 Flag column in the presence of 2 mM […], and the column was washed with a DDM or X-NBM-C11 buffer (20 mM HEPES pH 7.5, 100 mM NaCl, 0.2% respective amphiphile). The receptor was eluted in 20× CMC DDM or X-NBM-C11 containing 5 mM EDTA and 0.2 mg/ml free Flag peptide. The eluate was further applied to a superdex-200 10/300 GL column (GE healthcare) at 0.5 ml/min, and UV absorbance at 280 nm was recorded. The running buffer contained 20 mM HEPES pH 7.5, 100 mM NaCl, 20× CMC individual detergents (DDM and X-NBM-C11).
(§2) In addition, GPCR-Gs complex purified in DDM was replaced with X-NBM-C11 through amphiphilic molecule exchange, and sample aliquots were obtained at regular intervals in 21-day incubation at 4° C. to measure complex stability.

β2AR / β2AR-Gs complex [3] = target: T2, β2AR / β2AR-Gs complex (Homo sapiens, UniProt P07550); experiment: as above; details: after amphiphile exchange, 20x CMC
T2 construct: Flag; made in house
T2 sequence (P07550 whole entry, one chain of several): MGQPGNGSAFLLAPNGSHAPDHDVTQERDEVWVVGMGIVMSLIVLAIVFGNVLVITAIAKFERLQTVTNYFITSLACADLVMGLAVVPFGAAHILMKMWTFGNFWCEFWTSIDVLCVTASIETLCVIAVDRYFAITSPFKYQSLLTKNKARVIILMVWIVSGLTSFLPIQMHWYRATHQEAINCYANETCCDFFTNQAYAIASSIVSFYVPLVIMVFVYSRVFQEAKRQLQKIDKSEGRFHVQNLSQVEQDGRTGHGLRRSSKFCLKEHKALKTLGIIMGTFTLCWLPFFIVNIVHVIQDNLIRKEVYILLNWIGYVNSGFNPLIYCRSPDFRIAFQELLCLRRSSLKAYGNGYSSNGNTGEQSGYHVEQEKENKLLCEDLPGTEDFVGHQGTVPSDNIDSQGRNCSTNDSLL
Procedure: as §1, §2

mBBr-β2AR = mBBr-β2AR (Homo sapiens, UniProt P07550); experiment: Gs-protein coupling assay, bimane fluorescence of mBBr-β2AR; details: 0.1% amphiphile, 2 μM ISO, 250 nM Gs
mBBr-β2AR, sequence (P07550 whole entry): as the sequence (P07550 whole entry, one chain of several) above
Procedure: To investigate a protein function, the receptor was conjugated with a fluorophore (monobromobimane; mBBr). The mBBr-β2AR was used to monitor the conformational changes of the receptor in the presence of binding partners (isopreoterenol (ISO) and Gs-protein) through fluorescence measurement, and detailed experimental methods are as follows.
0.5 μl undispersed mBBr-labeled receptor at 50 μM in DDM was diluted with 500 μl 0.1% NBM or DDM-containing buffer, and incubated for 15 minutes at room temperature, thereby obtaining a receptor having a final concentration of 50 nM. 2 μM isoproterenol (ISO) was added and the resulting solution was further incubated for 15 minutes at room temperature. After addition of 250 nM Gs, the protein samples were further incubated at room temperature for 20 minutes. Bimane fluorescence was measured by excitation at 370 nm, and emission spectra were recorded from 430 nm to 510 nm in a unit of 1 nm increments with 0.5 nm/s integration on a Spex FluoroMax-3 spectrofluorometer (Jobin Yvon Inc.) in photon counting mode set at 4-nm emission bandwidth pass. The mBBr response in 0.1% DDM was used as a positive control.

[4] = target: T3, Salmonella typhimurium melibiose permease (MelBSt) (Salmonella typhimurium, UniProt P30878); experiment: MelBSt extraction and thermostability (SDS-PAGE / western blotting); details: 1.5 wt %, elevated temperature
T3 construct: made in house; host or cells: E. coli DW2 (ΔmelB, ΔlacZY)
T3 sequence (P30878 whole entry): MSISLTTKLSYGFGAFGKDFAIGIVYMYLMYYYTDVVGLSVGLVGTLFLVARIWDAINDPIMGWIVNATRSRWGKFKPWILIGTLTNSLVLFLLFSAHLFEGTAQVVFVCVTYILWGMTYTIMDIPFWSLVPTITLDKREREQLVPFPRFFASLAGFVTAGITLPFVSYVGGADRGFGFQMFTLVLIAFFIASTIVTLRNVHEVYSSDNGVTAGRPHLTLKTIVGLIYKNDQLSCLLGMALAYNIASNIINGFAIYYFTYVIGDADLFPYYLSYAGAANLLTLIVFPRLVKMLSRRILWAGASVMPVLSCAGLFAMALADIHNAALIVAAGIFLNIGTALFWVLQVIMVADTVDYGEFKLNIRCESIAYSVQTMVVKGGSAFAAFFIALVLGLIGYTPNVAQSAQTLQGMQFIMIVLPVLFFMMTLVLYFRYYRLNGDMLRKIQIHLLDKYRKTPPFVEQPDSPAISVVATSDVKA
Procedure: An experiment of measuring structural stability of MelBSt (Salmonella typhimurium melibiose permease) protein with NBMs was carried out. The MelBSt protein was extracted from the membrane using NBMs or DDM, and the amounts and structure of the extracted proteins were analyzed by SDS-PAGE and western blotting. The concentration of the used amphiphilic compound was 1.5 wt %. The proteins were extracted at four temperatures (0, 45, 55, and 65° C.) and incubated at the same temperature for 90 minutes, and the amounts of the remaining proteins solubilized in an aqueous solution were measured, so as to simultaneously evaluate both performances of the compound such as protein extraction efficiency and stabilization activity. The amounts of the proteins extracted and stabilized by respective amphiphilic molecules were represented as relative values (%) to the amounts of total proteins contained in the membrane sample not treated with an amphiphilic molecule.
Specifically, Salmonella typhimurium melibiose permease (MelBSt) with a C-terminal 10-His tag was expressed in E. coli DW2 cells (^ΔmelB and ^ΔlacZY) using plasmid pK95^ΔAHB/WT MelBSt/CH10. Cell growth and membrane preparation were carried out according to the method described in the literature written by A. S. Ethayathulla et al. (Nat. Commun. 2014, 5, 3009). Protein assays were carried out with a Micro BCA kit (Thermo Scientific, Rockford, Ill.). The measurement of MelBSt stability was carried out on NBMs or DDM according to the protocol described by P. S. Chae et al. (Nat. Methods 2010, 7, 1003-1008). Membrane samples containing MelBSt (final protein concentration was 10 mg/mL) were incubated with a solubilization buffer (20 mM sodium phosphate, pH 7.5, 200 mM NaCl, 10% glycerol, 20 mM melibiose) and 1.5% (w/v) of DDM or NBMs (X-NBM-C10, D-NBM-C10, X-NBM-C11 or D-NBM-C11) at four different temperatures (0, 45, 55, 65° C.) for 90 minutes. To remove insoluble materials, following ultracentrifugation at 355,590 g using a Beckman Optimal™ MAX ultracentrifuge with TLA-100 rotor for 45 minutes at 4° C. was performed, and 20 μg of each protein sample was separated by SDS-16% PAGE, and then immunoblotted with a Penta-His-HRP antibody (Qiagen, Germantown, Md.). MelBSt was detected using SuperSignal West Pico chemiluminescent substrate by an ImageQuant LAS 4000 Biomolecular Imager (GE Health Care Life Science).

SMILES	UapA extraction efficiency from the cell membrane [1]	Retention of monodispersed UapA-GFP peak after heating (FSEC) [1]	β2AR-Gs complex stability by SEC profiles (β2AR / β2AR-Gs complex [2])	Size/homogeneity of β2AR protein-detergent complexes (SEC) (β2AR / β2AR-Gs complex [3])	Conformational change / function of mBBr-β2AR with ISO and Gs (mBBr-β2AR)	MelBSt membrane protein stabilization activity (overall) [4]
CCCCCCCCCCCOCC1C2CC([C@H]1COCCCCCCCCCCC)[C@H](O[C@@H]1OC(CO)[C@@H](O[C@H]3OC(CO)[C@@H](O)C(O)C3O)C(O)C1O)C2O[C@@H]1OC(CO)[C@@H](O[C@H]2OC(CO)[C@@H](O)C(O)C2O)C(O)C1O (stereo partly shown) [X-NBM-C11]	almost quantitatively extract	substantially better than DDM	perfectly maintained complex stability	homogeneous PDCs with the same size as that formed by DDM	retains an original protein function	–
CCCCCCCCCCCOCC1C2CC([C@@H]1COCCCCCCCCCCC)[C@H](O[C@@H]1OC(CO)[C@@H](O[C@H]3OC(CO)[C@@H](O)C(O)C3O)C(O)C1O)C2O[C@@H]1OC(CO)[C@@H](O[C@H]2OC(CO)[C@@H](O)C(O)C2O)C(O)C1O (stereo partly drawn) [D-NBM-C11]	–	a little better than DDM	–	–	–	excellent membrane protein stabilization activity
